Reference: patent US20250129430A1, “HIGH ATP-AFFINITY PROTEIN AS THERAPEUTIC TARGET FOR INTRACTABLE CANCER MOLECULAR SUBTYPES AND INHIBITOR THEREOF” (VeraVerse Co., Ltd., priority 2021, published 2025)

Key:
Assay type in all cases: cell-based, human
AGS = experiment: Cell viability drug screen, 12-point dose-response AUC; conditions: AGS cells; 72 hours; 12-point dose-response
How it was run: (§1)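 AUC comes from 12-point half-log dose–response curves, normalized to DMSO-treated cells and integrated trapezoidally, repeats averaged. Luminescent viability read after 72 h compound exposure at 37 °C; cells plated 5×10^3 per well 24 h before dosing.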

Hs746T = experiment: as above; conditions: Hs746T cells; 72 hours; 12-point dose-response
How it was run: (§2)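 AUC values represent the area under DMSO-normalized 12-point curves, computed by trapezoid rule and averaged over repeated experiments. Each EMT-type gastric line was exposed to half-log serial concentrations for 72 h at 37 °C, and viability was measured with a Glo luminescence kit.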

KATO3 = experiment: as above; conditions: KATO3 cells; 72 hours; 12-point dose-response
How it was run: as §2

MKN1 = experiment: as above; conditions: MKN1 cells; 72 hours; 12-point dose-response
How it was run: as §2

MKN28 = experiment: as above; conditions: MKN28 cells; 72 hours; 12-point dose-response
How it was run: as §2

MKN45 = experiment: as above; conditions: MKN45 cells; 72 hours; 12-point dose-response
How it was run: as §1

MKN74 = experiment: as above; conditions: MKN74 cells; 72 hours; 12-point dose-response
How it was run: as §1

NCC19 = experiment: as above; conditions: NCC19 cells; 72 hours; 12-point dose-response
How it was run: as §2

NCC20 = experiment: as above; conditions: NCC20 cells; 72 hours; 12-point dose-response
How it was run: as §2

NCC24 = experiment: as above; conditions: NCC24 cells; 72 hours; 12-point dose-response
How it was run: as §2

NCC59 = experiment: as above; conditions: NCC59 cells; 72 hours; 12-point dose-response
How it was run: as §2

NCI_N87 = experiment: as above; conditions: NCI_N87 cells; 72 hours; 12-point dose-response
How it was run: as §2

OCUM1 = experiment: as above; conditions: OCUM1 cells; 72 hours; 12-point dose-response
How it was run: as §2

SK4 = experiment: as above; conditions: SK4 cells; 72 hours; 12-point dose-response
How it was run: as §2

SNU16 = experiment: as above; conditions: SNU16 cells; 72 hours; 12-point dose-response
How it was run: as §2

SNU1750 = experiment: as above; conditions: SNU1750 cells; 72 hours; 12-point dose-response
How it was run: as §2

SNU1967 = experiment: as above; conditions: SNU1967 cells; 72 hours; 12-point dose-response
How it was run: as §2

SNU1 = experiment: as above; conditions: SNU1 cells; 72 hours; 12-point dose-response
How it was run: as §2

SNU216 = experiment: as above; conditions: SNU216 cells; 72 hours; 12-point dose-response
How it was run: as §1

SNU484 = experiment: as above; conditions: SNU484 cells; 72 hours; 12-point dose-response
How it was run: as §2

SNU601 = experiment: as above; conditions: SNU601 cells; 72 hours; 12-point dose-response
How it was run: as §2

SNU620 = experiment: as above; conditions: SNU620 cells; 72 hours; 12-point dose-response
How it was run: as §2

SNU638 = experiment: as above; conditions: SNU638 cells; 72 hours; 12-point dose-response
How it was run: as §2

SNU668 = experiment: as above; conditions: SNU668 cells; 72 hours; 12-point dose-response
How it was run: as §2

SNU719 = experiment: as above; conditions: SNU719 cells; 72 hours; 12-point dose-response
How it was run: as §1

YCC11 = experiment: as above; conditions: YCC11 cells; 72 hours; 12-point dose-response
How it was run: as §2

YCC2 = experiment: as above; conditions: YCC2 cells; 72 hours; 12-point dose-response
How it was run: as §2

YCC3 = experiment: as above; conditions: YCC3 cells; 72 hours; 12-point dose-response
How it was run: as §2

FU97 = experiment: as above; conditions: FU97 cells; 72 hours; 12-point dose-response
How it was run: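 Trapezoidal AUC of a 12-point, DMSO-normalized dose-response curve. Luminescent viability was measured after 72 h of exposure at 37° C to half-log serial dilutions (0.5% DMSO control), dosed 24 h after plating FU97 cells at 5×10^3 per well.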

[1] = test system: SEM-type gastric cancer cell line; experiment: Cell viability drug screen, AUC summary over SEM-type lines
How it was run: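 Seven EMT gastric cancer lines seeded 24 h, then treated with compound in half-log 12-point dilution series (0.5% DMSO) for 72 h at 37 °C. Viability measured by luminescence, normalized to DMSO control; AUC of each 12-point dose–response curve calculated by trapezoidal method.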

[2] = test system: non-SEM-type gastric cancer cell line; experiment: Cell viability drug screen, AUC summary over non-SEM-type lines; conditions: in the non-SEM-type gastric cancer cell line

SMILES: COCCn1c2c([n+](Cc3cnccn3)c1C)C(=O)c1ccccc1C2=O [YM155]
- area under the viability curve (AUC), normalized (AGS): −1.512
- area under the viability curve (AUC), normalized (Hs746T): −1.376
- area under the viability curve (AUC), normalized (KATO3): −0.3081
- area under the viability curve (AUC), normalized (MKN1): −2.0115
- area under the viability curve (AUC), normalized (MKN28): −1.021
- area under the viability curve (AUC), normalized (MKN45): 0.6792
- area under the viability curve (AUC), normalized (MKN74): −1.305
- area under the viability curve (AUC), normalized (NCC19): 3.608
- area under the viability curve (AUC), normalized (NCC20): 0
- area under the viability curve (AUC), normalized (NCC24): −0.6903
- area under the viability curve (AUC), normalized (NCC59): 0.1386
- area under the viability curve (AUC), normalized (NCI_N87): 0.4168
- area under the viability curve (AUC), normalized (OCUM1): 1.685
- area under the viability curve (AUC), normalized (SK4): −1.314
- area under the viability curve (AUC), normalized (SNU16): 2.497
- area under the viability curve (AUC), normalized (SNU1750): −2.624
- area under the viability curve (AUC), normalized (SNU1967): −0.2044
- area under the viability curve (AUC), normalized (SNU1): 1.212
- area under the viability curve (AUC), normalized (SNU216): 0.09958
- area under the viability curve (AUC), normalized (SNU484): −2.56
- area under the viability curve (AUC), normalized (SNU601): 1.661
- area under the viability curve (AUC), normalized (SNU620): 1.29
- area under the viability curve (AUC), normalized (SNU638): 0.5099
- area under the viability curve (AUC), normalized (SNU668): −0.2961
- area under the viability curve (AUC), normalized (SNU719): 3.789
- area under the viability curve (AUC), normalized (YCC11): −1.419
- area under the viability curve (AUC), normalized (YCC2): −0.4228
- area under the viability curve (AUC), normalized (YCC3): 1.325
- area under the viability curve (AUC), normalized (FU97): 1.301
- normalized viability AUC [1]: negative
- AUC value [2]: high
